In patent EP0054589B1, “Organic phosphoric acid ester derivatives, a process for preparing the same and insecticidal, miticidal or nematocidal compositions containing the same” (priority 1980, dated 1982):
Where two headings read alike, the source gives them in different places.

What was measured:
rice stem borer = assay: Insecticidal effect on rice stem borer, 3rd-instar larvae (rice seedling dip); type: in vivo, Chilo suppressalis; details: after 72 hours, 25°C
Procedure, shortened: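 Wettable-powder formulations were diluted in water to set concentrations, and rice seedlings were dipped in them. Ten 3rd-instar larvae were placed per capped cup with the treated seedlings and held at 25°C.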

tobacco cutworm = assay: Insecticidal effect on tobacco cutworm (cabbage leaf dip); type: in vivo, Prodenia litura; details: after 48 hours, 25°C
Procedure, shortened: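 Cabbage leaves dipped in water-diluted emulsifiable concentrate (two formulations, tests A and B) and air-dried were fed to 3rd-instar tobacco cutworm larvae at 25°C. Percent mortality scored after 48 hours; 3 replicates of 30 insects per compound.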

diamond back moth = assay: Insecticidal effect on diamond-back moth (cabbage leaf dip); type: in vivo, Plutella xylostella; details: 100 ppm, after 72 hours, 25°C
Procedure, shortened: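 Cabbage leaves dipped 10 s in water-diluted emulsifiable concentrate at set concentration, air-dried; thirty 3rd-instar diamond-back moth larvae per cup held at 25°C. Percent mortality scored after 72 h, three replicates per treatment.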

smaller tea tortrix = assay: Insecticidal effect on smaller tea tortrix (apple leaf dip); type: in vivo; details: Adoxophyes orana, foliar; Table 9; 100 ppm; after 72 hours, 25°C; wettable powder as Formulation Example 5; read-out: Percent Mortality
Method: Leaves of an apple tree were dipped into a dilute water suspension of a wettable powder prepared as described in Formulation Example 5. After drying in air, the leaves were charged in a 60 ml volume cup made of vinyl chloride resin, and […] 3rd-instar larvae of smaller tea tortrix were put in each cup. The cups were capped and kept at 25°C. After 72 hours, the number of the surviving insects and the dead insects were recorded to determine percent mortality. In each treatment, 3 cups and 30 insects were used in total.

apple leaf miner = assay: Insecticidal effect on apple leaf miner (sprayed apple seedling); type: in vivo, Lithocolletis ringoniella; details: Phyllonorycter ringoniella, 336 h, 500 ppm, fourteen days after spraying
Procedure, shortened: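 Wettable-powder suspensions were sprayed onto potted apple seedlings infested with newly hatched leaf miner larvae, then kept in a greenhouse.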

[1] = system: carmine mites resistant to Kelthane; assay: Miticidal effect on carmine mite resistant to Kelthane (sprayed egg plant seedling); type: in vivo, Tetranychus cinnabarius; details: 500 ppm; for Number of Living Mites after Application 7th Day / Number of Living Mites after Application 14th Day / Number of Living Mites after Application 21st Day / Number of Living Mites after Application 28th Day: egg plant seedling; for Control Effect (%): from mite counts on 7th, 14th, 21st and 28th day
Method: (§1) (A) An emulsifiable concentrate prepared as described in Formulation Example 1 and diluted to a predetermined concentration was sprayed using a spray-gun on a seedling of an egg plant placed in a pot of 12 cm in diametre to which plant carmine mites resistant to Kelthane were parasitic. After drying in air, seedlings were kept in a green house, and the number of living insects was recorded on the 7th, 14th, 21 st and 28th day from the day of application to determine the control effects. Three pots were used for each treatment. The control effect was assessed by the formula described in TEST EXAMPLE 7 above. Further, phytotoxicity was observed visually on the 7th day after the application.
as §1, with “(B) An” for “(A) An”, “Example 3” for “Example 1”, “in diameter” for “in diametre”, “in Test” for “in TEST”

[2] = Table 1, 500 ppm, wettable powder as Formulation Example 5
[3] = Table 3, 500 ppm, emulsifiable concentrate as Formulation Example 1
[4] = Table 7, emulsifiable concentrate as Formulation Example 1
[5] = Table 10, wettable powder as Formulation Example 5, read-out: Percent Morality (%)
[6] = Table 13, Formulation Example 1
[7] = Table 14, Formulation Example 3

SMILES | Percent Mortality (%) (rice stem borer; [2]) | Percent Mortality (%) (tobacco cutworm; [3]) | Percent Mortality (%) (diamond back moth; [4]) | mortality at 100 ppm (smaller tea tortrix) [%] | mortality at 500 ppm (apple leaf miner; [5]) [%] | Number of Living Mites after Application 7th Day [1, 6] | Number of Living Mites after Application 14th Day [1, 6] | Number of Living Mites after Application 21st Day [1, 6] | Number of Living Mites after Application 28th Day [1, 6] | Control Effect (%) ([1]; Table 13) | Number of Living Mites after Application 7th Day [1, 7] | Number of Living Mites after Application 14th Day [1, 7] | Number of Living Mites after Application 21st Day [1, 7] | Number of Living Mites after Application 28th Day [1, 7] | Control Effect (%) ([1]; Table 14) | Percent Mortality (%) (rice stem borer; Table 1, 100 ppm, wettable powder as Formulation Example 5) | Percent Mortality (%) (rice stem borer; Table 2, 100 ppm, wettable powder as Formulation Example 7) | Percent Mortality (%) (tobacco cutworm; Table 4, 100 ppm, emulsifiable concentrate as Formulation Example 3) | Percent Mortality (%) (diamond back moth; Table 8, emulsifiable concentrate as Formulation Example 4) | mortality at 500 ppm (apple leaf miner; Table 11, wettable powder as Formulation Example 7, read-out: Percent Mortality (%)) [%]
CCCSP(=O)(OC)Oc1ccc2c(c1)OC(C)=CC2(C)C (stereo not drawn) [Compound No. 1] | 100 | 100 | 100 | 100 | 100 | 0 | 0 | 5 | 11 | 99.0 | – | – | – | – | – | – | – | – | – | –
CCCSP(=O)(OCC)Oc1ccc2c(c1)OC(C)=CC2(C)C (stereo not drawn) [Compound No. 2, O-ethyl-S-propyl-O-(2,4,4-trimethyl-1,4-benzopyran-7-yl)phosphorothioate] | 100 | 100 | 100 | 100 | 100 | 0 | 0 | 7 | 10 | 99.1 | – | – | – | – | – | – | – | – | – | –
CCCSP(=S)(OCC)Oc1ccc2c(c1)OC(C)=CC2(C)C (stereo not drawn) [Compound No. 10] | 100 | 100 | 100 | 96.7 | 100 | 0 | 0 | 4 | 16 | 99.0 | 0 | 0 | 0 | 12 | 98.7 | – | – | – | – | –
CCCSP(=O)(OCC)Oc1ccc2c(c1)OC(C)(C)C=C2C (stereo not drawn) [Compound No. 20, O-ethyl-S-propyl-0-(2,2,4-trimethyl-1,2-benzopyran-7-yl)phosphorothioate] | 100 | 100 | 100 | – | 100 | – | – | – | – | – | – | – | – | – | – | 100 | 100 | 100 | 100 | 96.6
CCCSP(=S)(OC)Oc1ccc2c(c1)OC(C)=CC2(C)C (stereo not drawn) [Compound No. 9, 0-methyl-S-propyl-(2,4,4-trimethyl-1,4-benzopyran-7-yl)phosphorodithioate] | 100 | 100 | 100 | 100 | 100 | 0 | 0 | 0 | 0 | 100 | – | – | – | – | – | – | – | – | – | –
